Experimental data reported in PMC7127646 (Bioorganic & Medicinal Chemistry Letters, 2009).

What was measured:
SARS-CoV helicase [1] = target: T1, SARS-CoV helicase (Severe acute respiratory syndrome coronavirus, UniProt P0C6X7); format: biochemical
SARS-CoV helicase [2] = target: T1, SARS-CoV helicase; format: biochemical; remark: listed apart in the source

O=c1c(O)c(-c2ccc3c(c2)OCO3)oc2cc(O)cc(O)c12 [Compound 3b, 2-Benzo[1,3]dioxol-5-yl-3,5,7-trihydroxy-chromen-4-one]
inhibition of helicase ATPase activity (in words) (SARS-CoV helicase [1]): failed to show any inhibition | inhibition of duplex DNA-unwinding activity (in words) (SARS-CoV helicase [2]): failed to show any inhibition
